Columns and labels:
Format in all cases: functional
KM12 = assay: Cytotoxicity against human KM12 cells assessed as cell growth at 100 uM after 48 hrs by sulforhodamine B assay relative to control; settings: KM12, 48 h, read-out: Activity
HOP-62 = assay: Cytotoxicity against human HOP62 cells assessed as growth inhibition after 48 hrs by sulforhodamine B assay; settings: HOP-62, 48 h
MOLT-4 [1] = assay: Cytotoxicity against human MOLT4 cells assessed as cell growth at 0.1 uM after 48 hrs by sulforhodamine B assay relative to control; settings: MOLT-4, 48 h, read-out: Activity
786-0 [2] = assay: Cytotoxicity against human 786-0 cells assessed as cell growth at 0.1 uM after 48 hrs by sulforhodamine B assay relative to control; settings: 786-0, 48 h, read-out: Activity
OVCAR-4 = assay: Cytotoxicity against human OVCAR4 cells assessed as cell growth at 0.01 uM after 48 hrs by sulforhodamine B assay relative to control; settings: OVCAR-4, 48 h, read-out: Activity
MOLT-4 [3] = assay: Cytotoxicity against human MOLT4 cells assessed as cell growth at 0.01 uM after 48 hrs by sulforhodamine B assay relative to control; settings: MOLT-4, 48 h, read-out: Activity
786-0 [4] = assay: Cytotoxicity against human 786-0 cells assessed as growth inhibition after 48 hrs by sulforhodamine B assay; settings: 786-0, 48 h
NCI-H322M = assay: Cytotoxicity against human NCI-H322M cells assessed as cell growth at 0.01 uM after 48 hrs by sulforhodamine B assay relative to control; settings: read-out: Activity
LOX IMVI = assay: Cytotoxicity against human LOXIMVI cells assessed as growth inhibition after 48 hrs by sulforhodamine B assay
A498 [5] = assay: Cytotoxicity against human A498 cells assessed as growth inhibition after 48 hrs by sulforhodamine B assay; settings: A498, 48 h
SNB-19 = assay: Cytotoxicity against human SNB19 cells assessed as cell growth at 100 uM after 48 hrs by sulforhodamine B assay relative to control; settings: SNB-19, 48 h, read-out: Activity
OVCAR-8 = assay: Cytotoxicity against human OVCAR8 cells assessed as cell growth at 1 uM after 48 hrs by sulforhodamine B assay relative to control; settings: OVCAR-8, 48 h, read-out: Activity
OVCAR-5 [6] = assay: Cytotoxicity against human OVCAR5 cells assessed as cell growth at 0.1 uM after 48 hrs by sulforhodamine B assay relative to control; settings: OVCAR-5, 48 h, read-out: Activity
SF-268 [7] = assay: Cytotoxicity against human SF268 cells assessed as cell growth at 1 uM after 48 hrs by sulforhodamine B assay relative to control; settings: SF-268, 48 h, read-out: Activity
MDA-MB-435 [8] = assay: Cytotoxicity against human MDA-MB-435 cells assessed as growth inhibition after 48 hrs by sulforhodamine B assay; settings: MDA-MB-435, 48 h
T47D [9] = assay: Cytotoxicity against human T47D cells assessed as cell growth at 0.1 uM after 48 hrs by sulforhodamine B assay relative to control; settings: read-out: Activity
T47D [10] = assay: Cytotoxicity against human T47D cells assessed as growth inhibition after 48 hrs by sulforhodamine B assay
RXF 393 = assay: Cytotoxicity against human RXF393 cells assessed as cell growth at 0.1 uM after 48 hrs by sulforhodamine B assay relative to control; settings: RXF 393, 48 h, read-out: Activity
SF-268 [11] = assay: Cytotoxicity against human SF268 cells assessed as cell growth at 10 uM after 48 hrs by sulforhodamine B assay relative to control; settings: SF-268, 48 h, read-out: Activity
MDA-MB-435 [12] = assay: Cytotoxicity against human MDA-MB-435 cells assessed as cell growth at 1 uM after 48 hrs by sulforhodamine B assay relative to control; settings: MDA-MB-435, 48 h, read-out: Activity
UACC-257 = assay: Cytotoxicity against human UACC257 cells assessed as cell growth at 0.1 uM after 48 hrs by sulforhodamine B assay relative to control; settings: UACC-257, 48 h, read-out: Activity
MDA-MB-468 = assay: Cytotoxicity against human MDA-MB-468 cells assessed as cell growth at 0.1 uM after 48 hrs by sulforhodamine B assay relative to control; settings: MDA-MB-468, 48 h, read-out: Activity
MOLT-4 [13] = assay: Cytotoxicity against human MOLT4 cells assessed as growth inhibition after 48 hrs by sulforhodamine B assay; settings: MOLT-4, 48 h; for CC50: read-out: LC50 (the source's name)
SK-MEL-28 [14] = assay: Cytotoxicity against human SK-MEL-28 cells assessed as cell growth at 100 uM after 48 hrs by sulforhodamine B assay relative to control; settings: SK-MEL-28, 48 h, read-out: Activity
PC-3 = assay: Cytotoxicity against human PC3 cells assessed as cell growth at 10 uM after 48 hrs by sulforhodamine B assay relative to control; settings: PC-3, 48 h, read-out: Activity
HCC 2998 = assay: Cytotoxicity against human HCC2998 cells assessed as cell growth at 10 uM after 48 hrs by sulforhodamine B assay relative to control; settings: HCC 2998, 48 h, read-out: Activity
OVCAR-5 [15] = assay: Cytotoxicity against human OVCAR5 cells assessed as cell growth at 1 uM after 48 hrs by sulforhodamine B assay relative to control; settings: OVCAR-5, 48 h, read-out: Activity
M14 = assay: Cytotoxicity against human M14 cells assessed as cell growth at 0.01 uM after 48 hrs by sulforhodamine B assay relative to control; settings: M14, 48 h, read-out: Activity
SF-268 [16] = assay: Cytotoxicity against human SF268 cells assessed as growth inhibition after 48 hrs by sulforhodamine B assay; settings: SF-268, 48 h; for CC50: read-out: LC50 (the source's name)
BT-549 = assay: Cytotoxicity against human BT549 cells assessed as cell growth at 0.1 uM after 48 hrs by sulforhodamine B assay relative to control; settings: BT-549, 48 h, read-out: Activity
Malme-3M = assay: Cytotoxicity against human MALME-3M cells assessed as cell growth at 1 uM after 48 hrs by sulforhodamine B assay relative to control; settings: read-out: Activity
SK-MEL-28 [17] = assay: Cytotoxicity against human SK-MEL-28 cells assessed as growth inhibition after 48 hrs by sulforhodamine B assay; settings: SK-MEL-28, 48 h
A498 [18] = assay: Cytotoxicity against human A498 cells assessed as cell growth at 0.01 uM after 48 hrs by sulforhodamine B assay relative to control; settings: A498, 48 h, read-out: Activity
K562 = assay: Cytotoxicity against human K562 cells assessed as cell growth at 10 uM after 48 hrs by sulforhodamine B assay relative to control; settings: K562, 48 h, read-out: Activity
DU-145 = assay: Cytotoxicity against human DU145 cells assessed as growth inhibition after 48 hrs by sulforhodamine B assay; settings: DU-145, 48 h

## COc1cc(C(=O)/C=C/c2cc(-c3cc(OC)c(OC)c(OC)c3)n[nH]2)cc(OC)c1OC
KM12
  growth at 100 µM: -81%
HOP-62
  LC50: 5.74 µM
  TGI: 2.89 µM
MOLT-4 [1]
  growth at 0.1 µM: 112%
786-0 [2]
  growth at 0.1 µM: 105%
OVCAR-4
  growth at 0.01 µM: 95%
MOLT-4 [3]
  growth at 0.01 µM: 104%
786-0 [4]
  LC50: 6.76 µM
  TGI: 3.25 µM
NCI-H322M
  growth at 0.01 µM: 96%
LOX IMVI
  LC50: 5.57 µM
  TGI: 2.91 µM
A498 [5]
  LC50: 8.02 µM
  TGI: 3.59 µM
SNB-19
  growth at 100 µM: -98%
OVCAR-8
  growth at 1 µM: 81%
OVCAR-5 [6]
  growth at 0.1 µM: 101%
SF-268 [7]
  growth at 1 µM: 89%
MDA-MB-435 [8]
  LC50: 5.82 µM
  TGI: 2.95 µM
T47D [9]
  growth at 0.1 µM: 92%
T47D [10]
  LC50: 5.86 µM
  TGI: 2.57 µM
RXF 393
  growth at 0.1 µM: 88%
SF-268 [11]
  growth at 10 µM: -45%
MDA-MB-435 [12]
  growth at 1 µM: 79%
UACC-257
  growth at 0.1 µM: 91%
MDA-MB-468
  growth at 0.1 µM: 84%
MOLT-4 [13]
  TGI: 8.95 µM
  CC50: > 100 µM
SK-MEL-28 [14]
  growth at 100 µM: -97%
PC-3
  growth at 10 µM: -69%
HCC 2998
  growth at 10 µM: -87%
OVCAR-5 [15]
  growth at 1 µM: 89%
M14
  growth at 0.01 µM: 96%
SF-268 [16]
  TGI: 4.58 µM
  CC50: 14.2 µM
BT-549
  growth at 0.1 µM: 105%
Malme-3M
  growth at 1 µM: 89%
SK-MEL-28 [17]
  LC50: 6.07 µM
  TGI: 3.33 µM
A498 [18]
  growth at 0.01 µM: 95%

## COc1cc(C(=O)/C=C/c2cc(-c3ccc4c(c3)OCO4)n[nH]2)cc(OC)c1OC
KM12
  growth at 100 µM: -79%
HOP-62
  GI50: 2.33 µM
  LC50: 24.5 µM
  TGI: 6.24 µM
MOLT-4 [1]
  growth at 0.1 µM: 98%
786-0 [2]
  growth at 0.1 µM: 98%
OVCAR-4
  growth at 0.01 µM: 97%
MOLT-4 [3]
  growth at 0.01 µM: 97%
786-0 [4]
  GI50: 1.84 µM
  LC50: 6.51 µM
  TGI: 3.46 µM
NCI-H322M
  growth at 0.01 µM: 101%
A498 [5]
  GI50: 1.75 µM
  LC50: 15.3 µM
  TGI: 4.65 µM
SNB-19
  growth at 100 µM: -97%
OVCAR-8
  growth at 1 µM: 93%
OVCAR-5 [6]
  growth at 0.1 µM: 99%
SF-268 [7]
  growth at 1 µM: 89%
MDA-MB-435 [8]
  GI50: 2.28 µM
  LC50: 22.5 µM
  TGI: 5.8 µM
T47D [9]
  growth at 0.1 µM: 77%
T47D [10]
  GI50: 1.51 µM
  LC50: 19.9 µM
  TGI: 4.63 µM
RXF 393
  growth at 0.1 µM: 83%
SF-268 [11]
  growth at 10 µM: -12%
MDA-MB-435 [12]
  growth at 1 µM: 94%
K562
  growth at 10 µM: 3%
UACC-257
  growth at 0.1 µM: 97%
MDA-MB-468
  growth at 0.1 µM: 82%
MOLT-4 [13]
  GI50: 2.71 µM
  TGI: 8.36 µM
  CC50: > 100 µM
SK-MEL-28 [14]
  growth at 100 µM: -96%
PC-3
  growth at 10 µM: -46%
DU-145
  GI50: 2.92 µM
  TGI: 9.16 µM
DU-145; read-out: LC50 (the source's name)
  CC50: 31.4 µM
HCC 2998
  growth at 10 µM: -64%
OVCAR-5 [15]
  growth at 1 µM: 87%
M14
  growth at 0.01 µM: 98%
SF-268 [16]
  GI50: 2.45 µM
  TGI: 7.64 µM
  CC50: 31.2 µM
BT-549
  growth at 0.1 µM: 97%
Malme-3M
  growth at 1 µM: 83%
SK-MEL-28 [17]
  GI50: 1.92 µM
  LC50: 9.13 µM
  TGI: 4.18 µM
A498 [18]
  growth at 0.01 µM: 89%

— ChEMBL document CHEMBL4138123, “Design, synthesis and biological evaluation of novel pyrazolochalcones as potential modulators of PI3K/Akt/mTOR pathway and inducers of apoptosis in breast cancer cells” (Eur J Med Chem, 2017)
